Test results taken from a compilation of properties of binary mixtures (doi:10.1021/acs.jced.9b00769).

Experiment: xn = mol fraction of the nth substance listed
Conditions: 100 kPa

OCCN(CCO)CCO + CCCCCCCCCCCC[P+](CC)(CC)CC.N#Cc1ccc[n-]1
x2 = 0
Conditions | viscosity [mPa·s]
293.15 K | 940
298.15 K | 611
303.15 K | 413
313.15 K | 204

OCCN(CCO)CCO + CCCC[P+](CC)(CC)CC.N#Cc1ccc[n-]1
x2 = 0
Conditions | viscosity [mPa·s]
293.15 K | 940
298.15 K | 611
303.15 K | 413
313.15 K | 204

CCCCCCCCCCCC[P+](CC)(CC)CC.N#Cc1ccc[n-]1 + OCCN(CCO)CCO
Conditions | electrical conductivity [S/m] | viscosity [mPa·s]
293.15 K, x1 = 0.003 | 0.0008 | –
293.15 K, x1 = 0.005 | 0.0012 | –
293.15 K, x1 = 0.007 | 0.0016 | –
293.15 K, x1 = 0.008 | 0.0019 | –
293.15 K, x1 = 0.013 | 0.0027 | –
293.15 K, x1 = 0.017 | 0.0033 | 920
293.15 K, x1 = 0.02 | 0.0036 | –
293.15 K, x1 = 0.025 | 0.0038 | –
293.15 K, x1 = 0.042 | 0.0051 | –
293.15 K, x1 = 0.051 | 0.0053 | 1009
293.15 K, x1 = 0.065 | 0.0056 | –
293.15 K, x1 = 0.08 | 0.0058 | –
293.15 K, x1 = 0.09 | 0.006 | –
293.15 K, x1 = 0.091 | – | 1032
293.15 K, x1 = 0.116 | 0.0062 | –
293.15 K, x1 = 0.117 | – | 1007
293.15 K, x1 = 0.145 | – | 920
293.15 K, x1 = 0.28 | – | 860
293.15 K, x1 = 0.285 | 0.0061 | –
293.15 K, x1 = 0.404 | 0.0069 | –
293.15 K, x1 = 0.512 | 0.0081 | –
293.15 K, x1 = 0.687 | – | 840
293.15 K, x1 = 0.701 | 0.0141 | –
293.15 K, x1 = 0.809 | – | 720
293.15 K, x1 = 1 | 0.0267 | 423
298.15 K, x1 = 0.017 | – | 608
298.15 K, x1 = 0.035 | – | 641
298.15 K, x1 = 0.091 | – | 680
298.15 K, x1 = 0.117 | – | 649
298.15 K, x1 = 0.145 | – | 610
298.15 K, x1 = 0.28 | – | 573
298.15 K, x1 = 0.473 | – | 583
298.15 K, x1 = 0.687 | – | 576
298.15 K, x1 = 1 | – | 310
303.15 K, x1 = 0.017 | – | 396
303.15 K, x1 = 0.051 | – | 418
303.15 K, x1 = 0.091 | – | 435
303.15 K, x1 = 0.117 | – | 423
303.15 K, x1 = 0.145 | – | 403
303.15 K, x1 = 0.207 | – | 389
303.15 K, x1 = 0.28 | – | 379
303.15 K, x1 = 0.473 | – | 395
303.15 K, x1 = 0.687 | – | 395
303.15 K, x1 = 0.809 | – | 353
303.15 K, x1 = 1 | – | 214
313.15 K, x1 = 0.017 | – | 181
313.15 K, x1 = 0.035 | – | 194
313.15 K, x1 = 0.091 | – | 198
313.15 K, x1 = 0.145 | – | 192
313.15 K, x1 = 0.28 | – | 183
313.15 K, x1 = 0.473 | – | 194
313.15 K, x1 = 0.687 | – | 199
313.15 K, x1 = 0.809 | – | 184
313.15 K, x1 = 1 | – | 114

CCCCCCCCCCCC[P+](CCCC)(CCCC)CCCC.N#Cc1ccc[n-]1 + OCCN(CCO)CCO
Conditions | electrical conductivity [S/m] | viscosity [mPa·s]
293.15 K, x1 = 0.003 | 0.0006 | –
293.15 K, x1 = 0.004 | 0.0008 | –
293.15 K, x1 = 0.005 | 0.0011 | –
293.15 K, x1 = 0.007 | 0.0014 | –
293.15 K, x1 = 0.01 | 0.0019 | –
293.15 K, x1 = 0.017 | – | 980
293.15 K, x1 = 0.022 | 0.003 | –
293.15 K, x1 = 0.027 | 0.0032 | –
293.15 K, x1 = 0.042 | 0.0036 | –
293.15 K, x1 = 0.054 | 0.0038 | 1054
293.15 K, x1 = 0.075 | 0.0041 | –
293.15 K, x1 = 0.177 | 0.0038 | 1025
293.15 K, x1 = 0.244 | 0.0039 | 970
293.15 K, x1 = 0.325 | 0.0041 | 930
293.15 K, x1 = 0.431 | 0.0043 | 830
293.15 K, x1 = 0.755 | 0.0057 | 680
298.15 K, x1 = 0.017 | – | 654
298.15 K, x1 = 0.054 | – | 680
298.15 K, x1 = 0.096 | – | 690
298.15 K, x1 = 0.121 | – | 690
298.15 K, x1 = 0.177 | – | 680
298.15 K, x1 = 0.244 | – | 646
298.15 K, x1 = 0.431 | – | 569
298.15 K, x1 = 0.538 | – | 532
303.15 K, x1 = 0.035 | – | 435
303.15 K, x1 = 0.096 | – | 452
303.15 K, x1 = 0.121 | – | 450
303.15 K, x1 = 0.177 | – | 450
303.15 K, x1 = 0.244 | – | 432
303.15 K, x1 = 0.431 | – | 391
303.15 K, x1 = 0.538 | – | 370
313.15 K, x1 = 0.017 | – | 205
313.15 K, x1 = 0.035 | – | 205
313.15 K, x1 = 0.054 | – | 208
313.15 K, x1 = 0.121 | – | 216
313.15 K, x1 = 0.177 | – | 219
313.15 K, x1 = 0.244 | – | 211
313.15 K, x1 = 0.431 | – | 200
313.15 K, x1 = 0.538 | – | 194
313.15 K, x1 = 0.755 | – | 182
313.15 K, x1 = 1 | – | 166

CCCC[P+](CC)(CC)CC.N#Cc1ccc[n-]1 + OCCN(CCO)CCO
Conditions | electrical conductivity, 293.15 K [S/m] | viscosity, 293.15 K [mPa·s] | viscosity, 298.15 K [mPa·s] | viscosity, 303.15 K [mPa·s] | viscosity, 313.15 K [mPa·s]
x1 = 0.002 | 0.0007 | – | – | – | –
x1 = 0.007 | 0.0017 | – | – | – | –
x1 = 0.009 | 0.0022 | – | – | – | –
x1 = 0.018 | 0.0036 | 960 | – | 410 | 188
x1 = 0.023 | 0.0041 | – | – | – | –
x1 = 0.029 | – | – | 633 | 408 | 184
x1 = 0.047 | 0.0055 | – | – | – | –
x1 = 0.059 | 0.0059 | 1010 | 660 | 426 | 191
x1 = 0.089 | 0.0068 | 970 | 636 | 410 | 185
x1 = 0.104 | – | 940 | 614 | 397 | 177
x1 = 0.123 | 0.0077 | – | – | – | –
x1 = 0.223 | – | – | 530 | – | 155
x1 = 0.272 | 0.0115 | – | – | – | –
x1 = 0.413 | – | 680 | 439 | 284 | 136
x1 = 0.508 | – | 647 | 426 | – | 132
x1 = 0.537 | 0.0248 | – | – | – | –
x1 = 0.763 | 0.0489 | 478 | 318 | 210 | 106
x1 = 1 | 0.147 | 187 | 137 | 104 | 62
